The target of one data set is Nav1.5 (Homo sapiens, UniProt Q14524). Put plainly: Cardiac ion channel inhibition.
The subject of data set [1] is CYP1A2. Format: in vitro ADME. The settings on record: human hepatocytes.
The target of a further data set is CYP3A4 (Homo sapiens, UniProt P08684). Put plainly: CYP inhibition assay. The conditions noted are these: at 20 μM.
The next data set addresses human PDE9A (Homo sapiens, UniProt O76083). Put plainly: PDE9A scintillation proximity assay with 3H-cGMP. Type of data set: biochemical. For orientation: In a scintillation proximity assay essentially only radioactivity close to the scintillant gives light.
The next data set has as its target T1, CYP2C8 (Homo sapiens, UniProt P10632).
T1 sequence (P10632 1-490): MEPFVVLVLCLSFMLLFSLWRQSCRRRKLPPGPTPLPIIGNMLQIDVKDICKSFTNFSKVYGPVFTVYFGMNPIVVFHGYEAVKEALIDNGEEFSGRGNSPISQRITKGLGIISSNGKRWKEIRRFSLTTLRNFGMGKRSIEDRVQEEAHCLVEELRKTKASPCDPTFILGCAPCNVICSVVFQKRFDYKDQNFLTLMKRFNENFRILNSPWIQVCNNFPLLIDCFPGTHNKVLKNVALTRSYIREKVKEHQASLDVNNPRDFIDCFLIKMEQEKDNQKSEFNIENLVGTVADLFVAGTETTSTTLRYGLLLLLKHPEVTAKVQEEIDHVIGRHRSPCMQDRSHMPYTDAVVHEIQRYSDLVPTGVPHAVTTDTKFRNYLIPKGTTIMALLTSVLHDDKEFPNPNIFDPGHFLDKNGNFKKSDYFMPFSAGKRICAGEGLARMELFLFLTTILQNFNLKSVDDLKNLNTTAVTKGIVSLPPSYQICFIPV
The data set is described as follows: CYP inhibition assay. The settings on record: at 20 μM.

Data set [2] is described as follows: Radiotelemetric measurement of blood pressure in rats. The conditions noted are these: telemetric rats, within 24 h.
The next data set has as its target CYP2D6 (Homo sapiens, UniProt P10635). The data set is described as follows: CYP inhibition assay. The settings on record: at 20 μM.
The subject of another data set is PDE7B. The data set is described as follows: PDE selectivity profiling. Type of data set: biochemical, human.
In another data set the test system is PDE2A. Put plainly: PDE selectivity profiling. Format: biochemical, human.
The nature of data set [3]: Metabolite identification assay, hepatocyte incubation. Format: in vitro ADME, rat.
In data set [4] the target is T2, CYP1A2 (Homo sapiens, UniProt P05177).
T2 sequence (P05177 1-516): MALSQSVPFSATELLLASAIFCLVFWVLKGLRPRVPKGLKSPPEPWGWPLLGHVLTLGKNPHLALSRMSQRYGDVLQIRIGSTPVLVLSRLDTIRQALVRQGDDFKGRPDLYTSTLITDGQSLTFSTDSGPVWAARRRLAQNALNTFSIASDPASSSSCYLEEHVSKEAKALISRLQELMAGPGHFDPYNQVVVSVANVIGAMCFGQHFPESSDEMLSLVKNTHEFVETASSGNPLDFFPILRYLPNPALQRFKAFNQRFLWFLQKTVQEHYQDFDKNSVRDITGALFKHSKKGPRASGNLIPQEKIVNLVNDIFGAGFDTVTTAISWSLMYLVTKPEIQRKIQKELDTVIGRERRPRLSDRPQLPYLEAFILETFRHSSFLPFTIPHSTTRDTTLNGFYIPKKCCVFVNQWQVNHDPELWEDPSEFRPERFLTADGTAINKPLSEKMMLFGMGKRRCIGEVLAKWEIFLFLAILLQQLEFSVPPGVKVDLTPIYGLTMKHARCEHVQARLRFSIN
The settings on record: at 20 μM.

The target of the next data set is hERG (Homo sapiens, UniProt Q12809). The data set is described as follows: Cardiac ion channel inhibition.
Sequence of hERG (Q12809 whole entry): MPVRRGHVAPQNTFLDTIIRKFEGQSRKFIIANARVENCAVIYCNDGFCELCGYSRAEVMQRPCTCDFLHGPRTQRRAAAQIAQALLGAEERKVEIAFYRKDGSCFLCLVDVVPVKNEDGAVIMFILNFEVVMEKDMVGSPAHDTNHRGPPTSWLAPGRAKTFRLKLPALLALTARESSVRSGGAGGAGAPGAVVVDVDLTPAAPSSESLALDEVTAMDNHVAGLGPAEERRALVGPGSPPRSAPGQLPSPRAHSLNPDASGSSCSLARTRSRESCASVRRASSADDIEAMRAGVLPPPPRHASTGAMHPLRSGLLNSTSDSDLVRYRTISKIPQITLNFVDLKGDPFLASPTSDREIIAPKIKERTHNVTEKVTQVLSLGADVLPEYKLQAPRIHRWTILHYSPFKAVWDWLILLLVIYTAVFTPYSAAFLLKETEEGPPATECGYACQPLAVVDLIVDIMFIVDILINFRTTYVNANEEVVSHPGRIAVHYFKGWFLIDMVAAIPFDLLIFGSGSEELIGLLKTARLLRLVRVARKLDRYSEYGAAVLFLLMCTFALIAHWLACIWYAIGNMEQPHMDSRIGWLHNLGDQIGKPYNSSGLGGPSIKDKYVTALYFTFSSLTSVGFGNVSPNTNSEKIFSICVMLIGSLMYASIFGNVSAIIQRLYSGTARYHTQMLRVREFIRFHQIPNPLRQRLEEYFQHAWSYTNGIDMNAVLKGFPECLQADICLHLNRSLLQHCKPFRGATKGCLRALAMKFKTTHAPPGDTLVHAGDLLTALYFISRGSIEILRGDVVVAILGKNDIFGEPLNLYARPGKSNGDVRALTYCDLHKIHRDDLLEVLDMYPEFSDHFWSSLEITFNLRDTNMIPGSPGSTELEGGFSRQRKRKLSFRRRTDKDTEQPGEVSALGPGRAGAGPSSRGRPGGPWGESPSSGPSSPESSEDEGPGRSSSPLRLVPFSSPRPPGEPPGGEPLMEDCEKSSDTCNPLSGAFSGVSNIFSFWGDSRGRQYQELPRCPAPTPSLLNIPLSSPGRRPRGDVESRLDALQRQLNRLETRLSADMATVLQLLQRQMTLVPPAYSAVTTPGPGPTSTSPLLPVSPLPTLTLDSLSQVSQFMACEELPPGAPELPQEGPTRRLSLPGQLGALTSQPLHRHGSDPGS
The next data set in a line: Pharmacokinetics in dogs. The conditions noted are these: dog, blood, iv, 0.3 mg/kg. Format: in vivo.
In the next data set the target is T3, rat PDE9A (Rattus norvegicus, UniProt Q8QZV1).
T3 sequence (Q8QZV1 1-534): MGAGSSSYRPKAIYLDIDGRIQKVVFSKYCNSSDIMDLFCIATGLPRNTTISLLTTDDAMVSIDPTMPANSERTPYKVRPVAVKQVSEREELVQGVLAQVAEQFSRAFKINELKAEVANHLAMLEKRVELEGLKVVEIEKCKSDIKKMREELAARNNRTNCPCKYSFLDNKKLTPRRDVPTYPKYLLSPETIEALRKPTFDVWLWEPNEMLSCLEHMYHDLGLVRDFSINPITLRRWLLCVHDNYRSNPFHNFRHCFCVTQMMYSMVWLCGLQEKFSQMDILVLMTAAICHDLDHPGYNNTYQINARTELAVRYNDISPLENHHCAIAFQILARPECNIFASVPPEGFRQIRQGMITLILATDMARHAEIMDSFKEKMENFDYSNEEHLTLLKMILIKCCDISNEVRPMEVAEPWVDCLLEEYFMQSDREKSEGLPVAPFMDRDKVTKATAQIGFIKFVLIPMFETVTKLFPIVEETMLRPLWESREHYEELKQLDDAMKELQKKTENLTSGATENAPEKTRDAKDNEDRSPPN
The data set is described as follows: PDE9A scintillation proximity assay, rat enzyme. Type of data set: biochemical.

In another data set the target is T4, mouse PDE9A (Mus musculus, UniProt O70628).
T4 sequence (O70628 1-534): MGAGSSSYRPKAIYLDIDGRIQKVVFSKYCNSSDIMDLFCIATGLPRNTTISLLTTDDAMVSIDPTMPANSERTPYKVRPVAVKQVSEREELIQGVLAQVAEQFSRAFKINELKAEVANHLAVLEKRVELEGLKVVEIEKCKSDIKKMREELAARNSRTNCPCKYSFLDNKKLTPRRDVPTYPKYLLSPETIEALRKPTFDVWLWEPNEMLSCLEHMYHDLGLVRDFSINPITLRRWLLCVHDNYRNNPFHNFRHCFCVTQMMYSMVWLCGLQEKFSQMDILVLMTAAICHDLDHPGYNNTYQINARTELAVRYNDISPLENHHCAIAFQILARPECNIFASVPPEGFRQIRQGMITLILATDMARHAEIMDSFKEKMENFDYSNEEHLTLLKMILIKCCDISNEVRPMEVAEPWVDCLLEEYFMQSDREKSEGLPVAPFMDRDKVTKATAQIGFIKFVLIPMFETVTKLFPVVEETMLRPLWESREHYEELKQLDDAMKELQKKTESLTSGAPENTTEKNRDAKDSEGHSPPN
Put plainly: PDE9A scintillation proximity assay, mouse enzyme. Format: biochemical.

Another data set deals with urinary cGMP. Put plainly: Urinary cGMP assay in rats. Format: in vivo, rat. The settings on record: 40 mg/kg.
The next data set has as its system CYP3A4 mRNA. Put plainly: CYP induction potential in human hepatocytes. Format: in vitro ADME.
Data set [5] is described as follows: Metabolite identification assay, hepatocyte incubation. Format: in vitro ADME, human.
Another data set relates to PDE3B. The data set is described as follows: PDE selectivity profiling. Type of data set: biochemical, human.
A further data set deals with 75 off-targets (Panlabs). Put plainly: Panlabs off-target profile.
Another data set has as its system PDE10A. The data set is described as follows: PDE selectivity profiling. Type of data set: biochemical, human.
A short description of data set [6]: Transverse aortic constriction. The settings on record: mouse TAC. Type of data set: in vivo.
[7] abbreviates: 10 mg/kg twice daily for 5 weeks.
[8] abbreviates: twice daily oral 10 or 50 mg/kg.

pIC50: −log10 of the molar value. A value given as a limit tells only on which side of the number the result lay.

Sequence of CYP3A4 (P08684 whole entry): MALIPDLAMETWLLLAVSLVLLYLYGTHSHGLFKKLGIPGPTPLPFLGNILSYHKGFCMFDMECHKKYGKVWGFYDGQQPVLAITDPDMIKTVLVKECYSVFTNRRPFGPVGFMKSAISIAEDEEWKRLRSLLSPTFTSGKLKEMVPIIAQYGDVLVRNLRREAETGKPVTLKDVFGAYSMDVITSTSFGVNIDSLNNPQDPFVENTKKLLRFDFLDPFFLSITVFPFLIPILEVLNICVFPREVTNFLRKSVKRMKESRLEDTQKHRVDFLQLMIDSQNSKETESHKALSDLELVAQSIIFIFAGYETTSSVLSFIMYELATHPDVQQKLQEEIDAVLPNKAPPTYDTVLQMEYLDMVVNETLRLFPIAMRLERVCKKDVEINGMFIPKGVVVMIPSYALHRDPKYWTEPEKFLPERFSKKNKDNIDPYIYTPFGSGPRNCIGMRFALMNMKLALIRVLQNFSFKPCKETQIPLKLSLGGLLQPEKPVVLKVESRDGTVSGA
Sequence of Nav1.5 (Q14524 whole entry): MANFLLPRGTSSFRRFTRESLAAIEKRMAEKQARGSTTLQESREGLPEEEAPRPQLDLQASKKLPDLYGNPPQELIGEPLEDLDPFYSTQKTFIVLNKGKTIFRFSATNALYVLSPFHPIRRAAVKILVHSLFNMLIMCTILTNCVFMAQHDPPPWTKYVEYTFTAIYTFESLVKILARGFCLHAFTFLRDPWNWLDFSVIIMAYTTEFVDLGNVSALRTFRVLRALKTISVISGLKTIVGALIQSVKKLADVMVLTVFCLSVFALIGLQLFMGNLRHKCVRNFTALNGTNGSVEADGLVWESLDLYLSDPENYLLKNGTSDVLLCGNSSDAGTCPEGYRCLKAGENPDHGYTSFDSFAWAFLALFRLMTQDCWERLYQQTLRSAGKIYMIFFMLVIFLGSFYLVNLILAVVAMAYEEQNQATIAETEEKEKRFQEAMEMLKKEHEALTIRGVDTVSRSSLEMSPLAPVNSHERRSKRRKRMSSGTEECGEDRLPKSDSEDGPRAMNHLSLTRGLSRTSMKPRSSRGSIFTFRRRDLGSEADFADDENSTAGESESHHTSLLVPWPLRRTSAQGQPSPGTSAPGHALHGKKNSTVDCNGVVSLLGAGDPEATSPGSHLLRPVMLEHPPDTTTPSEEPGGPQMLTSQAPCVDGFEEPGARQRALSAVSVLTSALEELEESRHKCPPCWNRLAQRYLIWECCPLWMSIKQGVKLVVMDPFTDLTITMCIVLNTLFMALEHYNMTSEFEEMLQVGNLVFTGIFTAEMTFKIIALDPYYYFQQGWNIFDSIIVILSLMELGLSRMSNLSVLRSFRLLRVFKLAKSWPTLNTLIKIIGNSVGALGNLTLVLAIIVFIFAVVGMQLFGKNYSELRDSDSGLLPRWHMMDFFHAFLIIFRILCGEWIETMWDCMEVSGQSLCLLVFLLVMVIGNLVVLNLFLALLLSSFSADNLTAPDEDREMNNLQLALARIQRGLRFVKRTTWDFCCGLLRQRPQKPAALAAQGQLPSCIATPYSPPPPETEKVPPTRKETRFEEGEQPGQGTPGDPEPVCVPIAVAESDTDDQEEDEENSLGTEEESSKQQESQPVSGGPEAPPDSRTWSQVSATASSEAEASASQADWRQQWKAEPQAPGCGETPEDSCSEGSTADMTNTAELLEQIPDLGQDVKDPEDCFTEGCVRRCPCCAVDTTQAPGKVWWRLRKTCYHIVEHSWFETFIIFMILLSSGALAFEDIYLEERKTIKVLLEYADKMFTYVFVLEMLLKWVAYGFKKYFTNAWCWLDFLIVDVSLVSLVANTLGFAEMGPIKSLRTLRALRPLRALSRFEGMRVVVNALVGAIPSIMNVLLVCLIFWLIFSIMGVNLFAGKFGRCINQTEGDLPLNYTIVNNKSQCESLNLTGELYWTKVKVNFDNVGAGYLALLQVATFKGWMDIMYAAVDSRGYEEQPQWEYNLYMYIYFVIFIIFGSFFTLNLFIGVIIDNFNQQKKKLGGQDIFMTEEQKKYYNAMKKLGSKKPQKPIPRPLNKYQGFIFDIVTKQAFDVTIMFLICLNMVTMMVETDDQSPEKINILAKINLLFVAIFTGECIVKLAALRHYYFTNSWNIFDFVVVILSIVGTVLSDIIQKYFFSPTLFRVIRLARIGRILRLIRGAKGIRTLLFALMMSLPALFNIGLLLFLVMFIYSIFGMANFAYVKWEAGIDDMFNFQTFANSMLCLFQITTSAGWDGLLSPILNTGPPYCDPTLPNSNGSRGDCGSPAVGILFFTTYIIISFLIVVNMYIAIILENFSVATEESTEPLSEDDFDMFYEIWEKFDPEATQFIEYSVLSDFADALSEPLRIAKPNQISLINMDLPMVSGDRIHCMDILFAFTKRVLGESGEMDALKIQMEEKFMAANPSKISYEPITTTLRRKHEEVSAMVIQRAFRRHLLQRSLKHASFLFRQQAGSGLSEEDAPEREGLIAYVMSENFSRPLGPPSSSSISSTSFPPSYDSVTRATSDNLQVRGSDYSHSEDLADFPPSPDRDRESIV
Sequence of CYP2D6 (P10635 whole entry): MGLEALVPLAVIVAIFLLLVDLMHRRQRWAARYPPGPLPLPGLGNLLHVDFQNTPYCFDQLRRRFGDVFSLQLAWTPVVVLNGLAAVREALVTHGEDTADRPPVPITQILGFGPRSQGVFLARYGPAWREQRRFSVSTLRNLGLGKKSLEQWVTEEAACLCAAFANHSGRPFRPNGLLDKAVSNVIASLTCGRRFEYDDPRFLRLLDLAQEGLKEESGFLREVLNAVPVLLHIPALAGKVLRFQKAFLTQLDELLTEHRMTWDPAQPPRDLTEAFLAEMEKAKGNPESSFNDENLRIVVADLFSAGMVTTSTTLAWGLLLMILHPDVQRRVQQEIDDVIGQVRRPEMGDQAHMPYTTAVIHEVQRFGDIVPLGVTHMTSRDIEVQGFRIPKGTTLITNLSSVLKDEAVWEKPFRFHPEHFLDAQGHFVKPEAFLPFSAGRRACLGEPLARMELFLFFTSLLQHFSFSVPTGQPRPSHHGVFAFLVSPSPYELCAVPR
Sequence of human PDE9A (O76083 whole entry): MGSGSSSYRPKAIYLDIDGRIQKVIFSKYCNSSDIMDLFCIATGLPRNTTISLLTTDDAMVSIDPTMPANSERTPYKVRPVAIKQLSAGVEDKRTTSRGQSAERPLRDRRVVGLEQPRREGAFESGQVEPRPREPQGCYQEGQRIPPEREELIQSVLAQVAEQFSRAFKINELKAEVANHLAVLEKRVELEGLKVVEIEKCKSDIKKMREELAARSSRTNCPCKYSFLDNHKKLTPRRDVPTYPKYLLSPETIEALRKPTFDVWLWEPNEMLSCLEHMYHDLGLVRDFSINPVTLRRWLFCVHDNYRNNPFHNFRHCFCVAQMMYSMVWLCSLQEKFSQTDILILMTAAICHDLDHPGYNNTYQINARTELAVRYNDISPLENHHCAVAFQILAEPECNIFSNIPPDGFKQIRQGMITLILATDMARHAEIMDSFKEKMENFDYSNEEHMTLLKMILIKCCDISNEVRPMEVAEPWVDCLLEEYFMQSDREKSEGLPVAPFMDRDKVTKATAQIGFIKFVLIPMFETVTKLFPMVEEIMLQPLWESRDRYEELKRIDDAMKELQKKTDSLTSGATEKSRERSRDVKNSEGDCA

For orientation: clearance means the volume of plasma or blood freed of the substance per unit of time. As usually defined, the pIC50 is the IC50 on a negative log10 scale, so that one unit is a factor of ten. Regarding `CCCC1CNCc2c1[nH]c(=O)c(C#N)c2N1CCC2(CC1)CC2.Cl` (single isomer, unassigned; ent-4) [Compound 30, ent-4-(6-Azaspiro[2.5]octan-6-yl)-2-oxo-8-propyl-1,2,5,6,7,8-hexahydro-1,6-naphthyridine-3-carbonitrile Hydrochloride], at Nav1.5, the “inhibition of cardiac ion channel Nav1.5” value is “clean profile”. For the same compound, in the data set with CYP1A2 [1], the CYP1A2 induction result is listed as “no induction”. The “inhibition of CYP3A4” value on CYP3A4 is listed as “No inhibition”. In addition, the “BEI binding efficiency index −log (IC50)/MW × 1000” value at human PDE9A was determined as 23.9. In addition, at CYP2C8, the “inhibition of CYP2C8” value was “No inhibition”. Also, in [2] (once daily oral 5 or 40 mg/kg), the “effects on blood pressure” value is “no significant effects” and the “effects on heart rate” value is reported as “no significant effects”. For the same compound, the “inhibition of CYP2D6” value against CYP2D6 is “No inhibition”. Besides, the “PDE7B selectivity factor (PDE#-IC50/PDE9A-IC50)” value with PDE7B was more than 650x. Further, the “PDE2A selectivity factor (PDE#-IC50/PDE9A-IC50)” value with PDE2A is more than 650x. Also, in data set [3], the “reactive metabolites after incubation with rat hepatocytes” value was “no reactive metabolites were formed”. Moreover, the “inhibition of CYP1A2” value against CYP1A2 [4] is listed as “No inhibition”. At hERG, the “inhibition of cardiac ion channel hERG” value is given as “clean profile”. Also, the clearance in the data set “Pharmacokinetics in dogs” is 15 mL/min/kg. On rat PDE9A, the negative-log IC50 (pIC50) was 7.38. The same compound gave a pIC50 on mouse PDE9A of 7.47. In addition, the “urinary cGMP versus vehicle” value with urinary cGMP is on record as “nonsignificant trend toward higher cGMP levels”. In addition, the “genotoxicity in Ames test” value in the data set “Ames test” is listed as “No genotoxicity”. Further, in the data set on CYP3A4 mRNA, the “concentrations at which CYP3A4 mRNA was induced” value is recorded as “above 9.2 μM”. The “reactive metabolites after incubation with human hepatocytes” value in [5] is “no reactive metabolites were formed”. Also, in data set [5] (after 4 h of incubation), the “degradation in the presence of human hepatocytes” value is listed as “almost no degradation”. Moreover, the “PDE3B selectivity factor (PDE#-IC50/PDE9A-IC50)” value with PDE3B is listed as more than 650x. Moreover, the “inhibition of 75 off-targets (Panlabs)” value in the data set with 75 off-targets (Panlabs) is recorded as “clean profile”. Besides, the “PDE10A selectivity factor (PDE#-IC50/PDE9A-IC50)” value with PDE10A was more than 650x.

For the compound `C[C@@H]1CN(Cc2ncccn2)C[C@H]1c1nc2c(cnn2C2CCOCC2)c(=O)[nH]1` [PF-04447943, 6-[(3S,4S)-4-Methyl-1-(pyrimidin-2-ylmethyl)pyrrolidin-3-yl]-1-(tetrahydro-2H-pyran-4-yl)-1,5-dihydro-4H-pyrazolo[3,4-d]pyrimidin-4-one, reference compound], the “minimal diastolic left ventricular pressure (LVPmin)” value in [6] (10 mg/kg bid for five weeks, 10 mg/kg) was “reduction”. For the same compound, in data set [6] (setting [7]), the “heart function (LVEDP, Tau)” value is reported as “trend for improvement” and the “hypertrophy of the left atrium” value is given as “statistically significant reduction”. For the same compound, in data set [2] (setting [8]), the “effects on blood pressure” value is “no significant effects” and the “effects on heart rate” value is recorded as “no significant effects”. The same compound gave a clearance in the data set “Pharmacokinetics in dogs” of 8.33 mL/min/kg.

The values above are taken from publication PMC9791655 (Journal of Medicinal Chemistry, 2022).
